The subject of assay [1] is p21^cip1 abundance in HCMV-infected LU cells. Description: Western blot of p21cip1 abundance in HCMV-infected, density-arrested LU cells. The class given is cell-based, human. The method, then:
(§1) Cell culture and growth arrest. LU cells (3) were propagated in Eagle's minimum essential medium containing 10% fetal bovine serum and penicillin (100 units/ml)/streptomycin (100 μg/ml) in a 5% CO2 in air atmosphere. The cells were density-arrested as described previously in detail (18).
(§2) Virus stocks and productive infection. The AD169 strain of HCMV was propagated in LU cells as previously described in detail (6). The infectivity of virus stocks was determined by plaque assay (3). Virus stocks typically had infectivities between 8.0×10^6 and 4.0×10^7 plaque-forming units (PFU)/milliliter. LU cells were infected with HCMV as described in detail by Bresnahan et al. (18). Virus stocks and cell cultures were routinely examined for mycoplasma.
Western blots. Polyclonal or monoclonal antibody for p21^cip1 was obtained from Santa Cruz Biotechnology, Inc. (Santa Cruz, Calif.). Monoclonal antibodies against m-calpain, μ-calpain or calpastatin were generously provided by Dr. R. I. Mellgren (see also 75). Cells were harvested as described previously (18) by dislodging the cells with a cell lifter in phosphate buffered saline. The cells were collected by sedimentation and lysed in NP-40 lysis buffer [50 mM Tris, pH 7.4, 50 mM NaCl, 0.5% NP-40, and 1 mM NaVO3, 50 mM NaF, 1mM phenylmethylsulfonyl fluoride (PMSF), 1 mM dithiothreitol (DTT), 25 μg/ml trypsin inhibitor, 25 μg/ml aprotinin, 1 mM benzamide, and 25 μg/ml pepstatin A added just before use]. Cellular debris was removed by sedimentation and the supernatant fluids were reserved. The protein concentration was determined by the BCA protein assay (Pierce, Rockford, Ill.). Whole cell extracts (40 μg/lane) were fractionated by SDS-polyacrylamide gel electrophoresis (PAGE), and the polypeptides were transferred to nitrocellulose membranes (Bio-Rad Laboratories, Hercules, Calif.) as described previously (18). Antigen-antibody reactions were detected with the enhanced chemiluminescent assay (Amersham Pharmacia Biotech) following the manufacturer's recommendations. […]
FIGS. 9 and 10. The concentration effect of E64d on p21^cip1 abundance in HCMV-infected cells. 9: LU cells were density arrested as described in Materials and Methods. The cells were HCMV (5 PFU/cell) or mock infected, and at 48 hr PI were treated with selected concentrations of E64d. Whole cell lysates were prepared 6 hr later, and 40 μg of protein from each lysate was resolved by SDS-PAGE. The proteins were transferred to nitrocellulose and probed with antibodies to p21^cip1. Mock: mock-infected cells in the absence of drug. Control, untreated HCMV-infected cells. 0, DMSO solvent control, consisting of HCMV-infected cells treated with the same concentration of DMSO solvent (0.1%) contained in the highest concentration of E64d. 10: Represents the abundance of p21^cip1 determined by densitometric analysis of the data in FIG. 9.
FIGS. 11 and 12. The concentration effect of Z-Leu-Leu-H on p21^cip1 abundance in HCMV-infected cells. 11. LU cells were density arrested as described in Materials and Methods. The cells were HCMV (5 PFU/cell) infected, and at 48 hr PI were treated with selected concentrations of Z-Leu-Leu-H. Whole cell lysates were prepared 6 hr later, and 40 μg of protein from each lysate was resolved by SDS-PAGE. The proteins were transferred to nitrocellulose and probed with antibodies to p21^cip1. Mock, Control, and 0 are defined as in the legend to FIG. 9. 12 : Represents the abundance of p21^cip1 determined by densitometric analysis of the data in FIG. 11.
FIGS. 13 and 14. The time course for the effect of E64d on p21^cip1 abundance in HCMV-infected, density-arrested cells. 13: LU cells were density arrested, as described in Materials and Methods. The cells were HCMV (5 PFU/cell) or mock infected, and at the intervals indicated in the Fig., beginning 1 hr after infection, subsets of the cells were treated with E64d (100 μM). […]

Assay [2] concerns p21^cip1 abundance in mock-infected LU cells. Description: Western blot of p21cip1 abundance in mock-infected, density-arrested LU cells. The class given is cell-based, human. The method, then:
as §1, §2
Western blots. Polyclonal or monoclonal antibody for p21^cip1 was obtained from Santa Cruz Biotechnology, Inc. (Santa Cruz, Calif.). Monoclonal antibodies against m-calpain, μ-calpain or calpastatin were generously provided by Dr. R. I. Mellgren (see also 75). Cells were harvested as described previously (18) by dislodging the cells with a cell lifter in phosphate buffered saline. The cells were collected by sedimentation and lysed in NP-40 lysis buffer [50 mM Tris, pH 7.4, 50 mM NaCl, 0.5% NP-40, and 1 mM NaVO3, 50 mM NaF, 1mM phenylmethylsulfonyl fluoride (PMSF), 1 mM dithiothreitol (DTT), 25 μg/ml trypsin inhibitor, 25 μg/ml aprotinin, 1 mM benzamide, and 25 μg/ml pepstatin A added just before use]. Cellular debris was removed by sedimentation and the supernatant fluids were reserved. The protein concentration was determined by the BCA protein assay (Pierce, Rockford, Ill.). Whole cell extracts (40 μg/lane) were fractionated by SDS-polyacrylamide gel electrophoresis (PAGE), and the polypeptides were transferred to nitrocellulose membranes (Bio-Rad Laboratories, Hercules, Calif.) as described previously (18). Antigen-antibody reactions were detected with the enhanced chemiluminescent assay (Amersham Pharmacia Biotech) following the manufacturer's recommendations.
FIGS. 5 and 6. The effect of MG132, an inhibitor of proteasome degradation, on p21^cip1 abundance in HCMV- or mock-infected, density-arrested LU cells. 5. LU cells were density arrested, as described in Materials and Methods. The cell cultures were HCMV (5 PFU/cell)- or mock-infected and then exposed to selected concentrations of MG132 at 24 hr PI. Cell lysates were prepared at 30 hr PI (i.e., 6 hr after […] treatment), and 40 μg of protein from each lysate was resolved by SDS-PAGE. The proteins were transferred to nitrocellulose and probed with antibodies against p21^cip1. Control, cells cultured in the absence of MG132 or its solvent, DMSO. 0, DMSO solvent control, consisting of cells treated with the same concentration of DMSO (0.1%) present in the cultural fluids containing highest concentration of MG132 (10 μM). 6. Represents the abundance of p21^cip1 after MG132 treatment determined by densitometry of the data illustrated in FIG. 5. The data for mock-infected cells (open bars) were calculated relative to the p21^cip1 abundance in untreated mock-infected cells, while the data for HCMV-infected cells (closed bars) were determined relative to the p21^cip1 abundance in untreated HCMV-infected cells.
FIGS. 7 and 8. […]
At the times indicated in the FIG., whole cell lysates were prepared, and 40 μg of protein from each lysate was analyzed by SDS-PAGE. […]
(In western blotting, separated proteins are transferred to a membrane and probed.)

The structures appear in SMILES notation. Where a SMILES comes first, the peptide text is derived from it. The star is where a group is joined. Cbz = O=C(OCc1ccccc1)*

Consider `CC(C)C[C@@H](C=O)NC(=O)[C@H](CC(C)C)NC(=O)[C@H](CC(C)C)NC(=O)OCc1ccccc1` [MG132] (Cbz-Leu-Leu-Leu-aldehyde), for which the “slope of the concentration effect on p21^cip1 abundance (linear regression analysis)” value is on record as 0.19 in assay [1] (HCMV-infected cells, MG132 0 to 10 μM, p<0.01) and 0.33 in assay [2] (mock-infected cells, MG132 0 to 10 μM, p<0.01). The “change in p21^cip1 abundance (in words)” value in assay [1] (HCMV-infected cells, MG132 2.5 μM to 10 μM, compared with mock-infected cells) is on record as “smaller increases in p21^cip1 abundance”; in assay [2] (mock-infected density-arrested LU cells, MG132 0 to 10 μM), “concentration-dependent increase in the abundance of p21^cip1”. Moreover, in assay [2] (MG132 10 μM, mock-infected density-arrested LU cells, densitometry of Western blot (FIGS. 5 and 6)), the “increase in p21^cip1 abundance relative to DMSO solvent control or cells in the absence of any chemical” value stood at 3.6 fold.
As for `CC(C)CC(C=O)NC(=O)C(CC(C)C)NC(=O)OCc1ccccc1` (stereo not drawn) [Z-Leu-Leu-H], in assay [1] (100 μM, HCMV-infected cells treated at 48 hr PI, lysates 6 hr later), the “p21^cip1 abundance as % of that measured in mock-infected cells” value is recorded as “about 72%”. The “protection of p21^cip1, concentration effect (in words)” value in assay [1] (HCMV-infected cells treated at 48 hr PI for 6 hr, selected concentrations up to 100 μM) is listed as “protected p21^cip1 in a concentration-dependent manner”.
